According to US4495197A, “N-Carboxyl-thienamycin esters and analogs thereof as anti-inflammatory agents” (Merck & Co., Inc., priority 1982, dated 1985):
Read-outs that look alike come from different tables or passages of the source.

Target: T1, Human Polymorphonuclear Leukocyte Elastase (Homo sapiens, UniProt P08246)
T1 construct: Crude extract of human polymorphonuclear leukocytes (PMN) containing elastase activity; from tissue; host or cells: human polymorphonuclear leukocytes (crude extract)
T1 sequence (P08246 30-247 limits assumed): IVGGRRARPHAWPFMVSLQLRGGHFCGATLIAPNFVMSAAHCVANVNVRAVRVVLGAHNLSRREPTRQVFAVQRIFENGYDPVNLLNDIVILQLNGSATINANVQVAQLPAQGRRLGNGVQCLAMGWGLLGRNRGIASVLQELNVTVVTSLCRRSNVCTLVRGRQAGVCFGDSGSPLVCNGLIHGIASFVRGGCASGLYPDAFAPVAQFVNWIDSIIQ
Experiment: Inhibition of human PMN elastase via hydrolysis of N-t-Boc-alanyl-alanyl-prolylalanine-p-nitroanilide
Type: biochemical
Settings: pH 7.5
Method: Protocol-Enzyme Assays for the Inhibition of Human Polymorphonuclear Leukocyte Elastase Via Hydrolysis of N-t-Boc-alanyl-alanyl-prolylalanine-p-nitroanilide Reagents:
0.05M TES (N-tris[hydroxymethyl]methyl-2-amino-ethanesulfonic acid) Buffer, pH 7.5.
0.2 mM N-t-Boc-alanyl-alanyl-Prolyl-Alanine-p-nitroanilide (Boc-AAPAN).
To prepare substrate, the solid (m.w. 550) was first dissolved in 10.0 ml DMSO. Buffer at pH 7.5 was then added to a final volume of 100 ml.
Crude extract of human polymorphonuclear leukocytes (PMN) containing elastase activity.
Inhibitors (N-carboxyl-thienamycin eesters) to be tested dissolved in DMSO just before use.
To 1.0 ml of 0.2 mM Boc-AAPAN in a cuvette, 0.01-0.1 ml of DMSO with or without inhibitor was added. After mixing, a measurement was taken at 410 mμ to detect any spontaneous hydrolysis due to presence of test compound. 0.05 Milliliters of PMN extract was then added and the ΔOD/min at 410 mμ was measured and recorded. Beckman model 35 spectrophotometer was used.
Results were reported as % inhibition produced by test compound within 2 minutes as represented by the % decrease in ΔOD/min as compared to a control without inhibitor.
The elastase activity in the crude PMN extract may vary from one preparation to another. A control of each new batch is run, and the volume added in the assay procedure is adjusted according to activity.

| SMILES | inhibition at 0.5 µg/mL | inhibition at 5 µg/mL | inhibition at 20 µg/mL | inhibition at 10 µg/mL | inhibition at 25 µg/mL | inhibition at 50 µg/mL | also measured |
| --- | --- | --- | --- | --- | --- | --- | --- |
| CC(O)C1C(=O)N2C(C(=O)OCc3ccc([N+](=O)[O-])cc3)=C(SCC(C)(C)NC(=O)OCc3ccc([N+](=O)[O-])cc3)CC12 (centres unmarked) | 45% | 89% | 100% |  |  |  |  |
| CC(OC(=O)OCc1ccc([N+](=O)[O-])cc1)C1C(=O)N2C(C(=O)OCc3ccc([N+](=O)[O-])cc3)=C(SCCNC(=O)OCc3ccc([N+](=O)[O-])cc3)CC12 (centres unmarked) |  |  |  | 29% | 45% | 55% |  |
| CC(CSC1=C(C(=O)OCc2ccc([N+](=O)[O-])cc2)N2C(=O)C(C(C)O)C2C1)NC(=O)OCc1ccc([N+](=O)[O-])cc1 (centres unmarked) | 42% |  |  | 94% | 100% |  | inhibition at 1 µg/mL: 55%; inhibition at 2 µg/mL: 77% |
| O=C(NCCSC1=C(C(=O)OCc2ccc([N+](=O)[O-])cc2)N2C(=O)CC2C1)OCc1ccc([N+](=O)[O-])cc1 (centres unmarked) [H PNB PNB H H] |  | 18% | 50% |  |  | 63% |  |
| CC(O)C1C(=O)N2C(C(=O)OCc3ccccc3)=C(SCCNC(=O)OCc3ccccc3)CC12 (centres unmarked) [" benzyl benzyl H H] |  |  |  |  |  |  | inhibition at 5 µg/mL (conc. 5 μg/ml, measured within 2 minutes, crude PMN extract, Boc-AAPAN substrate, read-out: % Inhibition): 33%; inhibition at 20 µg/mL (conc. 20 μg/ml, measured within 2 minutes, crude PMN extract, Boc-AAPAN substrate, read-out: % Inhibition): 69%; inhibition at 50 µg/mL (conc. 50 μg/ml, measured within 2 minutes, crude PMN extract, Boc-AAPAN substrate, read-out: % Inhibition): 86% |
